From patent US10946012B2, “Methods for inducing tumor regression, inhibiting tumor growth, and inducing apoptosis in breast tumors with geranylgeranyltransferase I inhibitors” (H. Lee Moffitt Cancer Center and Research Institute, Inc., priority 2009, dated 2021)

Assays:
Rap1 geranylgeranylation = Rap1 geranylgeranylation in H-Ras transformed NIH 3T3 cells (Western blot); type: cell-based, murine; conditions: H-Ras/3T3 cells
Protocol: (§1) Human MDA-MB-468 and MDA-MB-231 breast cancer cells and murine NIH 3T3 cells were obtained from the ATCC and cultured in DMEM medium. Human SK-Br3 and BT-474 breast cancer cells (ATCC) were cultured in McCoy's 5a medium and Hybri-Care medium, respectively. Mouse embryonic fibroblast (MEF) cells from p27 wild-type and p27 null mice were grown in DMEM. All media were supplemented with 10% fetal calf serum, 10 units/ml penicillin, and 10 μg/ml streptomycin. Subconfluent cells were treated with different concentrations of GGTI, FTI or DMSO vehicle for specific time periods. After treatment, cells were harvested by trypsinization.
To prepare whole cell lysates, cells were trypsinized, washed with phosphate buffered saline (PBS) twice, and lysed in 30 mM Hepes, pH 7.5, 10 mM NaCl, 5 mM MgCl2, 25 mM NaF, 1 mM EGTA, 1% Triton-X-100, 10% glycerol, protease inhibitor cocktail, 2 mM PMSF, 2 mM Na3VO4, and 6.4 mg/ml p-nitrophenylphosphate. Lysates were cleared by centrifugation at 12,000×g for 15 min, and the supernatants were collected as whole cell extracts. The protein concentration was determined by the Bradford assay. […] Select bands were quantified using AlphaEaseFC densitometry software (AlphaInnotech, San Leandro, Calif.). […]

p27 wild-type MEFs = assay: Trypan Blue exclusion assay in p27 wild-type MEFs; type: cell-based, mouse; conditions: 50 μM, 72 h, p27 wt MEFs
Protocol: as §1
Adherent cells were harvested by trypsinization and diluted with 0.4% Trypan Blue dye and counted on a hemacytometer. Cells excluding the dye were scored as live cells, whereas cells absorbing the dye were scored as dead cells. Cell proliferation was determined by dividing the number of live cells in the treated sample by the number of live cells in the control, and the degree of cell death was expressed as percentage of dead cells of the total cell number.

[1] = system: MDA-MB-231, SK-Br3 and BT-474 breast cancer cells; assay: Effects in other human breast cancer cell lines; type: cell-based; conditions: 50 μM; all three cell lines
Protocol: as §1
To prepare whole cell lysates, cells were trypsinized, washed with phosphate buffered saline (PBS) twice, and lysed in 30 mM Hepes, pH 7.5, 10 mM NaCl, 5 mM MgCl2, 25 mM NaF, 1 mM EGTA, 1% Triton-X-100, 10% glycerol, protease inhibitor cocktail, 2 mM PMSF, 2 mM Na3VO4, and 6.4 mg/ml p-nitrophenylphosphate. […] The protein concentration was determined by the Bradford assay. […] Select bands were quantified using AlphaEaseFC densitometry software (AlphaInnotech, San Leandro, Calif.).
Adherent cells were harvested by trypsinization and diluted with 0.4% Trypan Blue dye and counted on a hemacytometer. Cells excluding the dye were scored as live cells, whereas cells absorbing the dye were scored as dead cells. […]

[2] = system: MDA-MB-468 breast cancer cells; assay: Cell cycle analysis in MDA-MB-468 cells; type: cell-based, human; conditions: 50 μM, control 51%
Protocol: Cell cycle analysis based on DNA content was performed as described previously. Liang, J., et al., PKB/Akt phosphorylates p27, impairs nuclear import of p27 and opposes p27-mediated G1 arrest, Nat Med 8:1153-60 (2002). At each time point, cells were harvested, counted, and washed twice with PBS. Cells (2-3×10^6) were suspended in 0.5 ml PBS, fixed in 5 ml of 70% ethanol overnight at −20° C., centrifuged, re-suspended again in 1 ml of propidium iodide staining solution (50 μg/ml propidium iodide, 100 units/ml RNase A and 1 mg/ml of glucose in PBS), and incubated at room temperature for 30 min. The cells were then analyzed for cell cycle distribution using FACScan (BD Biosciences) and ModFit LT cell cycle analysis software (Verity Software, Topsham, Me.).

p27 [3] = assay: Immunofluorescence of p27 in MDA-MB-468 cells; type: cell-based, human; conditions: 50 μM, 48 h
Protocol: MDA-MB-468 cells were plated on a glass coverslip and treated with 50 μM GGTI-2417 or DMSO as a control for 48 h. Medium was aspirated and the cells were washed twice with ice-cold sterile DPBS solution (Invitrogen, Carlsbad, Calif.), fixed with 4% paraformaldehyde at room temperature for 15 min, and then treated with 1% Nonidet P-40 for 30 min at room temperature. After blocking with 5% bovine serum albumin for 30 min at room temperature, cells were incubated with anti-p27 antibody (1:500) at room temperature for 1 h. After washing three times with DPBS solution, cells were incubated with FITC-conjugated secondary antibody (1:1000) for 1 h at room temperature. Cells were then washed three times with sterile DPBS solution, mounted using Vectashield mounting reagent (Vector Laboratories, Inc., Burlingame, Calif.) containing 4′,6′-diamidino-2-phenylindole (DAPI) for nuclear visualization, and analyzed using a Zeiss Axiovert Z-1 Imager microscope (Carl Zeiss, Oberkochen, Germany) at […]. Images were analyzed using ImagePro Plus 6.2 (Media Cybernetics, Bethesda, Md.).

p27 [4] = assay: Western blot / immunoprecipitation of p27 and prenylated proteins in MDA-MB-468 cells; type: cell-based, human; set-up: Rap1 geranylgeranylation / HDJ-2 farnesylation / processing / p27 protein levels: dose or concentration left out as unconfirmed
Protocol: MDA-MB-468 cells were lysed using CelLytic™ M Cell Lysis Reagent (Sigma-Aldrich, St. Louis, Mo.) containing protease inhibitor cocktail, 2 mM phenylmethylsulfonylfluoride (PMSF), 2 mM Na3VO4, and 6.4 mg/ml p-nitrophenylphosphate (Sigma-Aldrich). Lysates were incubated overnight with p27 antibody (BD Biosciences, San Jose, Calif.) at 4° C. while rocking; after incubation protein A anti-IgG agarose beads were added and incubated for 2 h at 4° C., then washed four times with an excess of lysis buffer. Samples were then boiled at 100° C. for 10 min in 2×SDS-sample buffer and analyzed by Western blotting as described below.
To prepare whole cell lysates, cells were trypsinized, washed with phosphate buffered saline (PBS) twice, and lysed in 30 mM Hepes, pH 7.5, 10 mM NaCl, 5 mM MgCl2, 25 mM NaF, 1 mM EGTA, 1% Triton-X-100, 10% glycerol, protease inhibitor cocktail, 2 mM PMSF, 2 mM Na3VO4, and 6.4 mg/ml p-nitrophenylphosphate. Lysates were cleared by centrifugation at 12,000×g for 15 min, and the supernatants were collected as whole cell extracts. The protein concentration was determined by the Bradford assay. Proteins were separated by SDS-PAGE and transferred to nitrocellulose membranes, which were then blotted with antibodies specific for whole Rap1 or unprenylated Rap1, Ras, the C-terminal region of pRb, Akt (Santa Cruz Biotechnology, Santa Cruz, Calif.), phospho-Akt(S473) (Cell Signaling, Danvers, Mass.), p27 (BD Biosciences, San Jose, Calif.), phospho-p27(T187) (Invitrogen, Carlsbad, Calif.), HDJ-2 (Lab Vision Corporation, Fremont, Calif.), phosphotyrosine (Millipore, Billerica, Mass.), and β-actin (Sigma-Aldrich, St. Louis, Mo.). Select bands were quantified using AlphaEaseFC densitometry software (AlphaInnotech, San Leandro, Calif.).

COC(=O)[C@H](CC(C)C)NC(=O)N1CCN(Cc2nc[nH]c2C)C(=O)[C@@H]1Cc1ccccc1 [GGTI-2417]
selectivity for inhibition of cellular GGTase I compared to FTase (Rap1 geranylgeranylation): > 125 fold | IC50 (Rap1 geranylgeranylation; 48 h, read-out: IC50, inhibition of Rap1 geranylgeranylation): 400 ± 100 nM | inhibition of proliferation (p27 wild-type MEFs): 89.0±3.1% | cell death (p27 wild-type MEFs; vehicle 22.4±7.2%): 53.4±7.0% | cell proliferation [1]: inhibited cell proliferation | p27 protein levels [1]: induced p27 protein levels | fraction of cells in G0/G1 [2]: 78% | cytosolic p27 levels (p27 [3]): not affected significantly | increase of nuclear levels of p27 (p27 [3]): 6 fold | increase of p27 Tyr phosphorylation (p27 [4]; 50 μM, MDA-MB-468): 3.5 fold | increase of p27 amounts (immunoprecipitated p27) (p27 [4]; 50 μM, MDA-MB-468): 11.9 fold | HDJ-2 farnesylation / processing (p27 [4]; MDA-MB-468, 48 h): not the farnesylation of HDJ-2 | Rap1 geranylgeranylation (p27 [4]; MDA-MB-468, 48 h): inhibited the geranylgeranylation of Rap1 | p27 protein levels (p27 [4]; MDA-MB-468, 48 h): increased p27 protein levels in a time-dependent manner
